In US20240336748A1, “A METHOD FOR PREPARING HYALURONIC ACID GRAFTED POLY(N-ISOPROPYLACRYLAMIDE) (HA-G-PNI-PAM)” (NABSOLUTE COMPANY LIMITED, priority 2021, published 2024):

Test system: fibroblast L929 cell
Assay: Side effect test, toxic reduction of asiatic acid, PrestoBlue assay
Assay type: cell-based
Details: 12.5 μM asiatic acid dissolved in DMSO in cell culture media
Excerpt: Side effect test of Sample 2 in colloid form at concentration of 0, 0.1, 0.15 and 0.25% w/v form was studied by considering the toxic reduction of asiatic acid in fibroblast L929 cell via PrestoBlue™ assay.

Question: With `C[C@H]1[C@H](C)CC[C@]2(C(=O)O)CC[C@]3(C)C(=CC[C@@H]4[C@@]5(C)C[C@@H](O)[C@H](O)[C@@](C)(CO)[C@@H]5CC[C@]43C)[C@H]12` [asiatic acid] as the compound, how does the Cell viability read?
Answer: The Cell viability was 5%.
